For 17 compounds, Ki results are on record in US20260124214A1, “HETEROCYCLIC COMPOUNDS FOR USE IN THE TREATMENT OF CANCER” (ARTIOS PHARMA LIMITED, priority 2021, published 2026).

The assay has as its target T1, Human Polθ polymerase domain (aa1820-2590) (Homo sapiens, UniProt O75417).
T1 construct: Human Polθ polymerase domain (aa1820-2590) was expressed in E. Coli; made in house; host or cells: E. coli
T1 sequence (O75417 1820-2590): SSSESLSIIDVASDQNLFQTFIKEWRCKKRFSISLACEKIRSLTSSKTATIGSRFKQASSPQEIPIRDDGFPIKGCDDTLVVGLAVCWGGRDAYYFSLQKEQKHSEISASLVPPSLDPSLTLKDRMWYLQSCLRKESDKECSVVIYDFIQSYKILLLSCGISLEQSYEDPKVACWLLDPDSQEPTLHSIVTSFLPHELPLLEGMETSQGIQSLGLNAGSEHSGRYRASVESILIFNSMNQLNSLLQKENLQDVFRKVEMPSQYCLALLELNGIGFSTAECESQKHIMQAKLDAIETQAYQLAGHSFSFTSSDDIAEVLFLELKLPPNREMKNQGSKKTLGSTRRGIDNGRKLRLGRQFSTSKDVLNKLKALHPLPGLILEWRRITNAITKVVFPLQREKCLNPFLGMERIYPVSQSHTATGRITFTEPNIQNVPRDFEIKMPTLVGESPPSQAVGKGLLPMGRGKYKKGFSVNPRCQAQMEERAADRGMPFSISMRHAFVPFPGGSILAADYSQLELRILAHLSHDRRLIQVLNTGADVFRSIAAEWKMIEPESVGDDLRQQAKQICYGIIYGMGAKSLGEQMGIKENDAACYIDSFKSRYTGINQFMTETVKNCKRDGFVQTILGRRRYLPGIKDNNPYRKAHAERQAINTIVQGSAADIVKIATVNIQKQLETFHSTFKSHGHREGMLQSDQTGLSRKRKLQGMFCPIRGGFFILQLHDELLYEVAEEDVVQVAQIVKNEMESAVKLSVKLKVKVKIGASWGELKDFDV
Briefly: Polθ Polymerase Domain WT KI Assay (PicoGreen). Type of assay: biochemical. The conditions noted are these: 100 nM DNA substrate, 0.156 nM Polθ, initial rates vs inhibitor concentration. The procedure, abridged: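 E. coli-expressed human Polθ polymerase domain (aa1820-2590) on annealed DNA II Short/Long primer-template (1.2:1), in 25 mM Tris pH 7.5, NaCl, 5% glycerol, 0.01% Triton X-100, 0.1 mg/ml BSA, 1 mM DTT, 1% DMSO. EDTA-quenched timepoints to 180 min, PicoGreen fluorescence. Initial rates vs inhibitor concentration fitted four-parameter for KI.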

Structures can show the parent of a compound that is named as a salt.

In general, Ki refers to a measure of affinity in units of concentration, obtained from inhibition or displacement. A lower Ki goes with higher affinity. As to `Cc1cc(C(F)(F)F)cc(N2C(=O)C[C@@H]3CN(CCN4CC[C@H](C(=O)N(C)C)C4)c4c(C)cccc4N(C)C(=O)[C@H]32)n1` [Example 72, (S)-1-(2-((3aR,11aS)-6,10-Dimethyl-1-(6-methyl-4-(trifluoromethyl)pyridin-2-yl)-2,11-dioxo-1,2,3,3a,4,10,11,11a-octahydro-5H-benzo[b]pyrrolo[2,3-f][1,4]diazocin-5-yl)ethyl)-N,N-dimethylpyrrolidine-3-carboxamide], the Ki is 0.969 nM. In the case of `Cc1cc(C(F)(F)F)cc(N2C(=O)C[C@@H]3CN(Cc4cccnc4)c4c(C)cccc4N(C)C(=O)[C@H]32)n1` [Example 115, (3aR,11aS)-6,10-Dimethyl-1-(6-methyl-4-(trifluoromethyl)pyridin-2-yl)-5-(pyridin-3-ylmethyl)-1,3a,4,5,10,11a-hexahydro-2H-benzo[b]pyrrolo[2,3-f][1,4]diazocine-2,11(3H)-dione] it was 1.08 nM; in that of `Cc1cc(C(F)(F)F)cc(N2C(=O)C[C@@H]3CN(CC4CCNCC4)c4c(F)cccc4N(C)C(=O)[C@H]32)n1` [Example 77, (3aR,11aS)-6-Fluoro-10-methyl-1-(6-methyl-4-(trifluoromethyl)pyridin-2-yl)-5-(piperidin-4-ylmethyl)-1,3a,4,5,10,11a-hexahydro-2H-benzo[b]pyrrolo[2,3-f][1,4]diazocine-2,11(3H)-dione Hydrochloride], 11.3 nM; in that of `Cc1cc(C(F)(F)F)cc(N2C(=O)C[C@@H]3CN(Cc4cn5c(n4)C(C)N(C)CC5)c4c(Cl)cccc4N(C)C(=O)[C@H]32)n1` (single isomer, unassigned) [Example 96a], 1.45 nM. `Cc1cc(C(F)(F)F)cc(N2C(=O)C[C@@H]3CN(CC4COCCN4C)c4c(Cl)cccc4N(C)C(=O)[C@H]32)n1` (single isomer, unassigned) [Example 119b] gave a Ki of 1.08 nM. The Ki values of the last two compounds are within 1.5-fold of each other. In the case of `CCN(CC)CCN1C[C@H]2CC(=O)N(c3cc(C(F)(F)F)cc(C)n3)[C@@H]2C(=O)N(C)c2cccc(Cl)c21` [Example 21, (3aR,11aS)-6-Chloro-5-(2-(diethylamino)ethyl)-10-methyl-1-(6-methyl-4-(trifluoromethyl)pyridin-2-yl)-1,3a,4,5,10,11a-hexahydro-2H-benzo[b]pyrrolo[2,3-f][1,4]diazocine-2,11(3H)-dione] it was 9.94 nM; in that of `Cc1cc(C(F)(F)F)cc(N2C(=O)C[C@@H]3CN(CCN4CC[C@H](C#N)C4)c4c(Cl)cccc4N(C)C(=O)[C@H]32)n1` [Example 39, (S)-1-(2-((3aR,11aS)-6-Chloro-10-methyl-1-(6-methyl-4-(trifluoromethyl)pyridin-2-yl)-2,11-dioxo-1,2,3,3a,4,10,11,11a-octahydro-5H-benzo[b]pyrrolo[2,3-f][1,4]diazocin-5-yl)ethyl)pyrrolidine-3-carbonitrile], 4.13 nM.

Regarding `Cc1cc(C(F)(F)F)cc(N2C(=O)C[C@@H]3CN(CCN4CC[C@H](N(C)C)[C@H](F)C4)c4c(Cl)cccc4N(C)C(=O)[C@H]32)n1` [Example 35, (3aR,11aS)-6-Chloro-5-(2-((3R,4S)-4-(dimethylamino)-3-fluoropiperidin-1-yl)ethyl)-10-methyl-1-(6-methyl-4-(trifluoromethyl)pyridin-2-yl)-1,3a,4,5,10,11a-hexahydro-2H-benzo[b]pyrrolo[2,3-f][1,4]diazocine-2,11(3H)-dione hydrochloride], the affinity corresponds to a Ki of 1.09 nM. In the case of `Cc1cc(C(F)(F)F)cc(N2C(=O)C[C@@H]3CN(CC4CCN(C)CC4)c4c(C)cccc4N(C)C(=O)[C@H]32)n1` [Example 79, (3aR,11aS)-6,10-Dimethyl-1-(6-methyl-4-(trifluoromethyl)pyridin-2-yl)-5-((1-methylpiperidin-4-yl)methyl)-1,3a,4,5,10,11a-hexahydro-2H-benzo[b]pyrrolo[2,3-f][1,4]diazocine-2,11(3H)-dione] it was 1.36 nM; in that of `Cc1cc(C(F)(F)F)cc(N2C(=O)C[C@@H]3CN(CCN4CCC(F)(F)CC4)c4c(Cl)cccc4N(C)C(=O)[C@H]32)n1` [Example 22, (3aR,11aS)-6-Chloro-5-(2-(4,4-difluoropiperidin-1-yl)ethyl)-10-methyl-1-(6-methyl-4-(trifluoromethyl)pyridin-2-yl)-1,3a,4,5,10,11a-hexahydro-2H-benzo[b]pyrrolo[2,3-f][1,4]diazocine-2,11(3H)-dione], 1.79 nM. In the case of `Cc1cc(C(F)(F)F)cc(N2C(=O)C[C@@H]3CNc4c(F)cccc4N(C)C(=O)[C@H]32)n1` [Example 1, (3aR,11aS)-6-Fluoro-10-methyl-1-(6-methyl-4-(trifluoromethyl)pyridin-2-yl)-1,3a,4,5,10,11a-hexahydro-2H-benzo[b]pyrrolo[2,3-f][1,4]diazocine-2,11(3H)-dione] it was 15.3 nM. The same measure for `Cc1cc(C(F)(F)F)cc(N2C(=O)C[C@@H]3CN(CCN4CCN(C)[C@@H](C)C4)c4c(Cl)cccc4N(C)C(=O)[C@H]32)n1` [Example 30, (3aR,11aS)-6-Chloro-5-(2-((S)-3,4-dimethylpiperazin-1-yl)ethyl)-10-methyl-1-(6-methyl-4-(trifluoromethyl)pyridin-2-yl)-1,3a,4,5,10,11a-hexahydro-2H-benzo[b]pyrrolo[2,3-f][1,4]diazocine-2,11(3H)-dione]: 0.381 nM; for `Cc1cc(C(F)(F)F)cc(N2C(=O)C[C@@H]3CN(CC(O)CN(C)C)c4c(Cl)cccc4N(C)C(=O)[C@H]32)n1` (single isomer, unassigned) [Example 132b]: 6.14 nM.

Regarding `Cc1cc(C(F)(F)F)cc(N2C(=O)C[C@@H]3CN(Cc4cc5n(n4)CCN(C)C5)c4c(Cl)cccc4N(C)C(=O)[C@H]32)n1` [Example 76, (3aR,11aS)-6-Chloro-10-methyl-5-((5-methyl-4,5,6,7-tetrahydropyrazolo[1,5-a]pyrazin-2-yl)methyl)-1-(6-methyl-4-(trifluoromethyl)pyridin-2-yl)-1,3a,4,5,10,11a-hexahydro-2H-benzo[b]pyrrolo[2,3-f][1,4]diazocine-2,11(3H)-dione], the Ki was determined as 0.458 nM. Compared with the last compound, the Ki is about 13-fold lower.

`Cc1cc(C(F)(F)F)cc(N2C(=O)C[C@@H]3CN(Cc4cn5c(n4)CNCC5)c4c(C)cccc4N(C)C(=O)[C@H]32)n1` [Example 80, (3aR,11aS)-6,10-Dimethyl-1-(6-methyl-4-(trifluoromethyl)pyridin-2-yl)-5-((5,6,7,8-tetrahydroimidazo[1,2-a]pyrazin-2-yl)methyl)-1,3a,4,5,10,11a-hexahydro-2H-benzo[b]pyrrolo[2,3-f][1,4]diazocine-2,11(3H)-dione] had a Ki of 0.186 nM. Against the preceding compound, the Ki is about 2.5-fold lower. In the case of `Cc1cc(C(F)(F)F)cc(N2C(=O)C[C@@H]3CN(c4ccccn4)c4c(Cl)cccc4N(C)C(=O)[C@H]32)n1` [Example 145, (3aR,11aS)-6-Chloro-10-methyl-1-(6-methyl-4-(trifluoromethyl)pyridin-2-yl)-5-(pyridin-2-yl)-1,3a,4,5,10,11a-hexahydro-2H-benzo[b]pyrrolo[2,3-f][1,4]diazocine-2,11(3H)-dione] it was 30.5 nM; in that of `Cc1cc(C(F)(F)F)cc(N2C(=O)C[C@@H]3CN(CCCN(C)C)c4c(C)cccc4N(C)C(=O)[C@H]32)n1` [Example 128, (3aR,11aS)-5-(3-(Dimethylamino)propyl)-6,10-dimethyl-1-(6-methyl-4-(trifluoromethyl)pyridin-2-yl)-1,3a,4,5,10,11a-hexahydro-2H-benzo[b]pyrrolo[2,3-f][1,4]diazocine-2,11(3H)-dione], 1.39 nM.
